In the supplement of paper PMC11451515:

Tested on: SEM cells
Assay: cell viability relative to DMSO control; higher = less cytotoxic
Conditions: 48 h
In short: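 Library compounds in DMSO were pin-dosed in an 11-point threefold series (47 μM to 0.79 nM) onto leukemia cells in 1536-well plates (5 μl). Plates held 500 cells/well of NOMO1 or SEM or 1000 cells/well of P12-Ichikawa, each adapted for at least four passages in each medium. Luminescence was read with CellTiter-Glo One after 48 h at 37°C. Viability means the per-plate percentage relative to DMSO wells, using cell-free wells as background.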

[1] = HPLM + 10% dialyzed FBS, 0.000781 µM
[2] = HPLM + 10% dialyzed FBS, 0.00234 µM
[3] = HPLM + 10% dialyzed FBS, 0.00702 µM
[4] = HPLM + 10% dialyzed FBS, 0.0211 µM
[5] = HPLM + 10% dialyzed FBS, 0.0632 µM
[6] = HPLM + 10% dialyzed FBS, 0.19 µM
[7] = HPLM + 10% dialyzed FBS, 0.569 µM
[8] = HPLM + 10% dialyzed FBS, 1.71 µM
[9] = HPLM + 10% dialyzed FBS, 5.12 µM
[10] = HPLM + 10% dialyzed FBS, 15.4 µM
[11] = HPLM + 10% dialyzed FBS, 46.1 µM
[12] = RPMI 5 mM glucose + 10% FBS, 0.000781 µM
[13] = RPMI 5 mM glucose + 10% FBS, 0.00234 µM
[14] = RPMI 5 mM glucose + 10% FBS, 0.00702 µM
[15] = RPMI 5 mM glucose + 10% FBS, 0.0211 µM
[16] = RPMI 5 mM glucose + 10% FBS, 0.0632 µM
[17] = RPMI 5 mM glucose + 10% FBS, 0.19 µM
[18] = RPMI 5 mM glucose + 10% FBS, 0.569 µM
[19] = RPMI 5 mM glucose + 10% FBS, 1.71 µM
[20] = RPMI 5 mM glucose + 10% FBS, 5.12 µM
[21] = RPMI 5 mM glucose + 10% FBS, 15.4 µM
[22] = RPMI 5 mM glucose + 10% FBS, 46.1 µM
[23] = RPMI 5 mM glucose + 10% dialyzed FBS, 0.000781 µM
[24] = RPMI 5 mM glucose + 10% dialyzed FBS, 0.00234 µM
[25] = RPMI 5 mM glucose + 10% dialyzed FBS, 0.00702 µM
[26] = RPMI 5 mM glucose + 10% dialyzed FBS, 0.0211 µM
[27] = RPMI 5 mM glucose + 10% dialyzed FBS, 0.0632 µM
[28] = RPMI 5 mM glucose + 10% dialyzed FBS, 0.19 µM
[29] = RPMI 5 mM glucose + 10% dialyzed FBS, 0.569 µM
[30] = RPMI 5 mM glucose + 10% dialyzed FBS, 1.71 µM
[31] = RPMI 5 mM glucose + 10% dialyzed FBS, 5.12 µM
[32] = RPMI 5 mM glucose + 10% dialyzed FBS, 15.4 µM
[33] = RPMI 5 mM glucose + 10% dialyzed FBS, 46.1 µM

| Compound | cell viability [1] [%] | cell viability [2] [%] | cell viability [3] [%] | cell viability [4] [%] | cell viability [5] [%] | cell viability [6] [%] | cell viability [7] [%] | cell viability [8] [%] | cell viability [9] [%] | cell viability [10] [%] | cell viability [11] [%] | cell viability [12] [%] | cell viability [13] [%] | cell viability [14] [%] | cell viability [15] [%] | cell viability [16] [%] | cell viability [17] [%] | cell viability [18] [%] | cell viability [19] [%] | cell viability [20] [%] | cell viability [21] [%] | cell viability [22] [%] | cell viability [23] [%] | cell viability [24] [%] | cell viability [25] [%] | cell viability [26] [%] | cell viability [27] [%] | cell viability [28] [%] | cell viability [29] [%] | cell viability [30] [%] | cell viability [31] [%] | cell viability [32] [%] | cell viability [33] [%] |
| --- | --- | --- | --- | --- | --- | --- | --- | --- | --- | --- | --- | --- | --- | --- | --- | --- | --- | --- | --- | --- | --- | --- | --- | --- | --- | --- | --- | --- | --- | --- | --- | --- | --- |
| Nc1ncnc2ccccc12 | 83.3 | 87.9 | 93.9 | 18.9 | 97 | 97.1 | 109 | 91.5 | 90.5 | 93.4 | 99.5 | 97.9 | 98.7 | 118 | 13.2 | 123 | 102 | 96.9 | 123 | 99.1 | 122 | 107 | 73.9 | 76.3 | 89.6 | 16.7 | 94.4 | 86.2 | 101 | 98.6 | 91.4 | 97.6 | 99.6 |
| O=C(Oc1ccc([N+](=O)[O-])cc1)N1CCC(C(O)(c2ccc3c(c2)OCO3)c2ccc3c(c2)OCO3)CC1 | 72.2 | 89.4 | 64.5 | 97 | 86.3 | 94.8 | 99.7 | 83.7 | 46.6 | 93.5 | 86.1 | 83.3 | 72 | 58.6 | 93.2 | 94.5 | 90.4 | 84 | 78.6 | 35.4 | 99.3 | 85.5 | 90.1 | 95 | 61.6 | 95.9 | 88.6 | 94.7 | 97.9 | 99.3 | 46.3 | 96.2 | 98.2 |
| N#Cc1ccnc(Nc2cc(C3CCN(C4COC4)CC3)cc(N3CCC(F)(F)C3)n2)c1 | 96.4 | 97.9 | 91.6 | 110 | 110 | 104 | 109 | 103 | 102 | 35.3 | 10.2 | 107 | 127 | 125 | 128 | 123 | 110 | 131 | 112 | 100 | 43.7 | 8.66 | 103 | 110 | 97.8 | 111 | 121 | 101 | 110 | 106 | 85.5 | 25.5 | 9.03 |
| CC(C)C[C@H](NC(=O)CNC(=O)c1cc(Cl)ccc1Cl)B(O)O | 86.3 | 77.4 | 109 | 19.6 | 107 | 12.5 | 7.52 | 6.82 | 6.78 | 4.58 | 3.36 | 88.4 | 85.9 | 103 | 15.2 | 113 | 11.4 | 7.76 | 5.7 | 4.81 | 3.3 | 2.05 | 83.2 | 68.2 | 90.6 | 16.8 | 107 | 17.6 | 7.97 | 6.58 | 5.53 | 4.01 | 2.9 |
| CC(/C=C/C(=O)NO)=C\[C@@H](C)C(=O)c1ccc(N(C)C)cc1 | 108 | 126 | 109 | 100 | 111 | 101 | 59 | 8.01 | 3.01 | 2.86 | 2.07 | 112 | 117 | 115 | 97.7 | 115 | 115 | 66.2 | 5.17 | 3.1 | 2.52 | 1.53 | 102 | 112 | 116 | 105 | 106 | 102 | 56.2 | 8.19 | 3.94 | 3.72 | 1.86 |
| Cn1c(=O)n(-c2ccc(C(C)(C)C#N)cc2)c2c3cc(-c4cnc5ccccc5c4)ccc3ncc21 | 94 | 104 | 96 | 86.7 | 82 | 66.3 | 50.5 | 38.8 | 28.3 | 22.1 | 22.3 | 68 | 56.2 | 64.5 | 64.3 | 46 | 33.6 | 27.7 | 15 | 8.98 | 9.61 | 6.98 | 98.6 | 89 | 89.8 | 86.1 | 65.7 | 57.9 | 51.4 | 35 | 24.2 | 13.2 | 14.4 |
| CNC[C@H](O)c1cccc(O)c1 | 66.9 | 68.9 | 98.8 | 23.9 | 86.8 | 93.1 | 98.1 | 103 | 103 | 101 | 108 | 93 | 55.3 | 100 | 15.4 | 88.7 | 96.7 | 91.7 | 78.1 | 98.2 | 104 | 116 | 89 | 73 | 89.5 | 19.9 | 111 | 98.8 | 101 | 110 | 110 | 98.4 | 111 |
| CN1c2ccccc2C(=O)N2CCc3c([nH]c4ccccc34)C21 (centres undefined) | 136 | 120 | 114 | 127 | 125 | 120 | 122 | 131 | 125 | 117 | 101 |  |  |  |  |  |  |  |  |  |  |  | 111 | 105 | 120 | 114 | 104 | 112 | 125 | 109 | 102 | 89.1 | 94.7 |
| C[S+](=O)([O-])c1ccc(C(=O)Nc2ccc(Cl)c(-c3ccccn3)c2)c(Cl)c1 | 97.9 | 98.7 | 129 | 116 | 126 | 127 | 131 | 122 | 140 | 126 | 144 | 100 | 117 | 129 | 123 | 126 | 150 | 121 | 122 | 153 | 25.2 | 139 | 104 | 98.5 | 136 | 120 | 131 | 111 | 138 | 142 | 127 | 140 | 134 |
| COc1ccc([C@@H]2CC(=O)c3c(O)cc(O[C@@H]4O[C@H](CO[C@@H]5O[C@@H](C)[C@H](O)[C@@H](O)[C@H]5O)[C@@H](O)[C@H](O)[C@H]4O)cc3O2)cc1O | 99.2 | 101 | 93.9 | 93.2 | 113 | 48 | 110 | 116 | 125 | 108 | 123 | 105 | 86.6 | 98.4 | 93.4 | 112 | 58.5 | 107 | 91.3 | 107 | 113 | 120 | 112 | 107 | 106 | 114 | 110 | 54.7 | 127 | 114 | 132 | 137 | 119 |
| CC(C)c1cc(C(=O)N2Cc3ccc(CN4CCN(C)CC4)cc3C2)c(O)cc1O |  |  |  |  |  |  |  |  |  |  |  | 104 | 105 | 107 | 17.8 | 112 | 107 | 31.1 | 23.5 | 21.5 | 23.1 | 18.3 | 125 | 120 | 120 | 20.5 | 106 | 99.9 | 47.2 | 32.4 | 29.8 | 28.8 | 25.9 |
| CN(C)CCOc1ccc(-c2nc(-c3ccncc3)c(-c3ccc4c(c3)CC/C4=N\O)[nH]2)cc1 | 108 | 111 | 106 | 106 | 110 | 101 | 114 | 117 | 112 | 109 | 24.8 | 107 | 104 | 106 | 124 | 123 | 113 | 126 | 114 | 122 | 109 | 19.6 | 115 | 109 | 111 | 113 | 113 | 119 | 125 | 134 | 119 | 115 | 68.5 |
| CN1C(=O)C[C@H](C(=O)N[C@@H](Cc2cnc[nH]2)C(=O)N2CCC[C@H]2C(N)=O)NC1=O | 117 | 108 | 142 | 121 | 111 | 127 | 122 | 120 | 116 | 97.4 | 74.3 |  |  |  |  |  |  |  |  |  |  |  | 104 | 118 | 120 | 122 | 105 | 112 | 104 | 103 | 104 | 98.1 | 50.1 |
| Cc1cc(Nc2cc(CN3CCOCC3)c3nc(C)c(Cc4ccc(Cl)cc4F)n3n2)[nH]n1 | 119 | 116 | 113 | 108 | 116 | 105 | 74.6 | 60.5 | 51.4 | 22.9 | 21.4 | 113 | 107 | 114 | 109 | 108 | 83.2 | 61.6 | 58.8 | 49.4 | 14.8 | 6.83 | 109 | 129 | 122 | 92.4 | 106 | 95.2 | 66.1 | 52.7 | 40.9 | 11.6 | 9.11 |
| CCOC(=O)c1cncn1[C@H](C)c1ccccc1 | 101 | 92.8 | 92.6 | 89.6 | 108 | 96.9 | 23.1 | 106 | 113 | 96.2 | 89.8 | 111 | 110 | 97.4 | 109 | 112 | 114 | 21.6 | 107 | 117 | 108 | 111 | 118 | 116 | 93.8 | 109 | 128 | 102 | 26.4 | 115 | 98.9 | 106 | 97.7 |
| COC1=C2C[C@@H](C)C[C@H](OC)[C@H](O)[C@@H](C)/C=C(\C)[C@H](OC(N)=O)[C@@H](OC)/C=C/C=C(\C)C(=O)NC(=CC1=O)C2=O | 122 | 115 | 125 | 127 | 117 | 123 | 101 | 115 | 100 | 6.39 | 5.09 |  |  |  |  |  |  |  |  |  |  |  | 110 | 105 | 102 | 108 | 97.2 | 95.8 | 99.7 | 114 | 72.2 | 5.54 | 4.75 |
